Marks after values point to notes of the source that are not given here.
Tests used:
Neuro2A cells = assay: In vitro neuroprotection: Neuro2A cells cultured with GGA derivative with or without GGTI-298, cells that extended neurites counted; type: cell-based, mouse; settings: for Activity 1 μM: compound at 1 μM; for Activity 1 μM / Activity 1 nm: cells that extended neurites counted, normalized by the activity of CNS-102 (GGA trans-isomer); for Activity 1 nm: compound at 1 nm (so in the source)
Protocol: Neuro2A cells were cultured with a GGA derivative in the presence or absence of an inhibitor against a G-protein (GGTI-298). After differentiation was induced, cells that extended neurites were counted as an activity of the compound. The activities are shown in arbitrary units and were normalized by the activity of CNS-102 (GGA trans-isomer) in each parallel experiments.

Sprague-Dawley rats = assay: Neurodegeneration induced by Kainic acid in rats (hippocampus CA3 neuron damage, seizure behavior scores); type: in vivo, rat; settings: oral dosing, Kainic acid injected
Protocol: The compounds and the compositions of this invention are tested in vivo for their ability to alleviate neurodegenerations induced by Kainic acid. See, for example, PCT Pat. App. No. PCT/US2011/050071, supra. A compound or composition of this invention is orally dosed to Sprague-Dawley rats, and Kainic acid is injected. Seizure behaviors are observed and scored (see, e.g., R. J. Racine, Modification of seizure activity by electrical stimulation: II. Motor seizure, Electroencephalogr. Clin. Neurophysiol. 32 (1972) 281-294). Brain tissues of rats are sectioned on histology slides, and neurons in hippocampus tissues are stained by Nissl.
The indicated compounds or vehicle control were orally dosed to Sprague-Dawley rats, and Kainic acid was injected. Seizure behaviors were observed and scored (Ref. R. J. Racine, Modification of seizure activity by electrical stimulation: 11. Motor seizure, Electroencephalogr. Clin. Neurophysiol. 32 (1972) 281-294. Modifications were made for the methods). Brain tissues of rats were sectioned on histology slides, and neurons in hippocampus tissues were stained by Nissl. Neurons damaged by Kainic acid (mean of hippocampus CA3 neurons damaged) and behavior scores (mean of seizure behavior scores) were quantified.

HSP70 [1] = assay: Expression of heat shock proteins in vitro (Western blotting of Neuro2A lysates); type: cell-based; settings: Mus musculus, N2a, retinoic acid differentiation, GGTI-298, 24 hrs; for fold induction at 0.1 µM: 100 nM, signal in the absence of the compounds normalized as 1, read-out: HSP70 Western signal, Compound Dose 100 nM; for fold induction at 1 µM: signal in the absence of the compounds normalized as 1, read-out: HSP70 Western signal, Compound Dose 1 μM; for fold induction at 10 µM: signal in the absence of the compounds normalized as 1, read-out: HSP70 Western signal, Compound Dose 10 μM
Protocol: Mouse Neuro2A neuroblastoma cells were cultured in DMEM supplemented with 10% FBS for 24 hrs. The cells were treated with various concentrations of the indicated compounds. Then differentiation was induced by retinoic acid in DMEM supplemented with 2% FBS. An inhibitor against a G-protein, GGTI-298, was incubated. After 24 hrs incubation, cells were harvested, and lysates were prepared from the harvested cells. Western blotting analysis was done for the same protein amounts of these lysates, and western signals were detected by chemiluminescence and quantified in parallel with comparisons of those detected in the absence of the compound. Western signals in the absence of the compounds were normalized as 1.

HSP70 [2] = assay: HSP70 protein in rat brain lysates by Western blotting after oral dosing; type: in vivo
Protocol: The compounds tabulated below or vehicle controls were orally dosed at 12 mg/kg to Sprague-Dawley rats. Rat brain tissues were extracted in various time points after the oral dosing. Lysates were prepared from the harvested brain tissues. Western blotting analysis was done for the same protein amounts of these lysates, and western signals of HSP70 were detected by chemiluminescence and quantified in parallel with comparisons of those detected at time 0 hr. Western signals at time 0 hr were normalized as 100.

CCOC(=O)C(C/C=C(\C)CC/C=C(\C)CCC=C(C)C)C(C)=O (stereo not shown)
Activity 1 μM (Neuro2A cells): 259* arbitrary units

CCC(=O)CC/C=C(\C)CC/C=C(\C)CC/C=C(\C)CCC=C(C)C
Activity 1 nm (Neuro2A cells): 186 arbitrary units

CCOC(=O)C(C/C=C(\C)CC/C=C(\C)CC/C=C(\C)CCC=C(C)C)C(=O)C12CC3CC(CC(C3)C1)C2 (stereo not shown)
Activity 1 nm (Neuro2A cells): 145 arbitrary units

CCOC(=O)C(C/C=C(\C)CC/C=C(\C)CC/C=C(\C)CCC=C(C)C)C(=O)C(C)C (stereo not shown)
Activity 1 nm (Neuro2A cells): 173 arbitrary units

CCOC(=O)C(CC=C1CCCCC1)C(C)=O (stereo not shown)
Activity 1 μM (Neuro2A cells): 162* arbitrary units

CCOC(=O)/C=C(\C)CCC=C1CCCCC1
Activity 1 μM (Neuro2A cells): 161* arbitrary units

C/C(=C\CO)CCC=C1CCCCC1
Activity compared with control experiment with no addition of compound (Neuro2A cells; in words, concentration not given): * Under the conditions tested, this compound was not found to have activity beyond that of the control for this assay.

CCOC(=O)C=C1CCCCC1
Activity 1 μM (Neuro2A cells): 240* arbitrary units

CC(C)=CCC/C(C)=C/CC/C(C)=C/CC/C(C)=C/CC/C(C)=N/OCc1ccccc1
Activity 1 μM (Neuro2A cells): 287 arbitrary units

CCO/N=C(\C)CC/C=C(\C)CC/C=C(\C)CC/C=C(\C)CCC=C(C)C
Mean of Hippocampus CA3 neurons damaged (Sprague-Dawley rats; Vehicle 17.59 in this table): 14.66 Arbitrary units

CC(C)=CCC/C(C)=C/CC/C(C)=C/CC/C(C)=C/CC/C(C)=C/CCC(=O)C1CC1
Mean of Hippocampus CA3 neurons damaged (Sprague-Dawley rats; Vehicle 6.59 in this table): 5.98 Arbitrary units

CC(C)=CCC/C(C)=C/CC/C(C)=C/CC/C(C)=C/C=O
Mean of Hippocampus CA3 neurons damaged (Sprague-Dawley rats; Vehicle 1.72 in this table): 1.58 Arbitrary units

CC(C)=CCC/C(C)=C/CC/C(C)=C/CC/C(C)=C/CC/C(C)=N/OCC(=O)O
Mean of Seizure behaviors scores (Sprague-Dawley rats; Vehicle 26.68 in this table): 13.37 Arbitrary units

CC(C)=CCC/C(C)=C/CC/C(C)=C/CCC(C)OC(=O)NCC1CCCCC1 (stereo not shown)
fold induction at 0.1 µM (HSP70 [1]): 1.55
fold induction at 1 µM (HSP70 [1]): 1.49
fold induction at 10 µM (HSP70 [1]): 2.53

CCC(=O)CC/C=C(\CC)CC/C=C(\C)CC/C=C(\C)CCC=C(C)C
fold induction at 0.1 µM (HSP70 [1]): 1.79
fold induction at 1 µM (HSP70 [1]): 6.08
fold induction at 10 µM (HSP70 [1]): 4.76

CC(C)=CCC/C(C)=C/CC/C(C)=C/CC/C(C)=C/CC1CCCCC1=O (stereo not shown) [drawing 150]
Mean of Hippocampus CA3 neurons damaged (Sprague-Dawley rats; Vehicle 15.61 in this table): 2.64 Arbitrary units

CC(=O)CC/C=C(\C)CC/C=C(\C)CC/C=C(\C)CCC=C(C)C [drawing 151]
Mean of Hippocampus CA3 neurons damaged (Sprague-Dawley rats; Vehicle 15.61 in this table): 9.46 Arbitrary units

CC(C)=CCC/C(C)=C/CC/C(C)=C/CC/C(C)=C/CCC1(C)OCCO1 [drawing 152]
Mean of Hippocampus CA3 neurons damaged (Sprague-Dawley rats; Vehicle 15.31 in this table): 12.11 Arbitrary units

CCOC(=O)C(C/C=C(\C)CC/C=C(\C)CC/C=C(\C)CCC=C(C)C)C(C)=O (stereo not shown) [drawing 153]
Mean of Hippocampus CA3 neurons damaged (Sprague-Dawley rats; Vehicle ~7.74 in this table): ~5.57 Arbitrary units

CC(=O)CC/C=C(\C)CC/C=C(\C)CCC=C(C)C [drawing 154]
Mean of Hippocampus CA3 neurons damaged (Sprague-Dawley rats; Vehicle 19.95 in this table): 10.61 Arbitrary units

CC/C(=C\CCC(=O)C12CC3CC(CC(C3)C1)C2)CC/C=C(\C)CC/C=C(\C)CCC=C(C)C [drawing 155]
Mean of Hippocampus CA3 neurons damaged (Sprague-Dawley rats; Vehicle 19.95 in this table): 12.54 Arbitrary units

COC(=O)C(NC(=O)OC(C)CC/C=C(\C)CC/C=C(\C)CCC=C(C)C)C(C)C (stereo not shown) [drawing 156]
Mean of Hippocampus CA3 neurons damaged (Sprague-Dawley rats; Vehicle 9.76 in this table): 6.61 Arbitrary units

CC(=O)CC/C=C(\C)CC/C=C(\C)CC/C=C(\C)CC/C=C(\C)CCC=C(C)C [drawing 158]
Mean of Hippocampus CA3 neurons damaged (Sprague-Dawley rats; Vehicle 12.71 in this table): 2.22 Arbitrary units

CC(C)=CCC/C(C)=C/CC/C(C)=C/CC/C(C)=C/COC(=O)C1CCCCC1 [drawing 159]
Mean of Hippocampus CA3 neurons damaged (Sprague-Dawley rats; Vehicle 6.59 in this table): 1.55 Arbitrary units

CC(C)=CCC/C(C)=C/CC/C(C)=C/CC/C(C)=C/CCC(=O)C(C)(C)C [drawing 161]
Mean of Hippocampus CA3 neurons damaged (Sprague-Dawley rats; Vehicle 12.91 in this table): 8.08 Arbitrary units

CCCCCNC(=O)OC(C)CC/C=C(\C)CC/C=C(\C)CCC=C(C)C (stereo not shown) [drawing 162]
Mean of Hippocampus CA3 neurons damaged (Sprague-Dawley rats; Vehicle 7.09 in this table): 14.73 Arbitrary units

CC(C)=CCC/C(C)=C/CC/C(C)=C/CC/C(C)=C/CCC1(C)OCCO1 [drawing 165]
Mean of Seizure behaviors scores (Sprague-Dawley rats; Vehicle 41.56 in this table): 16.35 Arbitrary units

CC(C)=CCC/C(C)=C/CC/C(C)=C/CC/C(C)=C/CCC(=O)C(C)(C)C [drawing 166]
Mean of Seizure behaviors scores (Sprague-Dawley rats; Vehicle 19.75 in this table): 11.25 Arbitrary units

CC(C)=CCC/C(C)=C/CC/C(C)=C/CC/C(C)=C/COC(=O)C1CCCCC1 [drawing 167]
Mean of Seizure behaviors scores (Sprague-Dawley rats; Vehicle 26.31 in this table): 18.68 Arbitrary units

CCOC(=O)C(C/C=C(\C)CC/C=C(\C)CC/C=C(\C)CCC=C(C)C)C(C)=O (stereo not shown) [drawing 168]
Mean of Seizure behaviors scores (Sprague-Dawley rats; Vehicle 13.37 in this table): 3.83 Arbitrary units

CC(C)=CCC/C(C)=C/CC/C(C)=C/CC/C(C)=C/COC(=O)C1CCCCC1 [drawing 169]
fold induction at 0.1 µM (HSP70 [1]): 2.53
fold induction at 1 µM (HSP70 [1]): 2.34
fold induction at 10 µM (HSP70 [1]): 2.53

CCCCCNC(=O)OC(C)CC/C=C(\C)CC/C=C(\C)CCC=C(C)C (stereo not shown) [drawing 170]
fold induction at 0.1 µM (HSP70 [1]): 1.16
fold induction at 1 µM (HSP70 [1]): 1.26
fold induction at 10 µM (HSP70 [1]): 1.93

CC(=O)CC/C=C(\C)CC/C=C(\C)CC/C=C(\C)CC/C=C(\C)CCC=C(C)C [drawing 171]
fold induction at 0.1 µM (HSP70 [1]): 1.92
fold induction at 1 µM (HSP70 [1]): 2.78
fold induction at 10 µM (HSP70 [1]): 3.53

CC(C)=CCC/C(C)=C/CC/C(C)=C/CC/C(C)=C/CCC1(C)OCCO1 [drawing 172]
fold induction at 0.1 µM (HSP70 [1]): 3.16
fold induction at 1 µM (HSP70 [1]): 3.5
fold induction at 10 µM (HSP70 [1]): 3.49

CC(C)=CCC/C(C)=C/CC/C(C)=C/CC/C(C)=C/CC1CCCCC1=O (stereo not shown) [drawing 173]
fold induction at 0.1 µM (HSP70 [1]): 3.85
fold induction at 1 µM (HSP70 [1]): 3.78
fold induction at 10 µM (HSP70 [1]): 2.25

CC(=O)CC/C=C(\C)CC/C=C(\C)CCC=C(C)C [drawing 175]
fold induction at 0.1 µM (HSP70 [1]): 1.87
fold induction at 1 µM (HSP70 [1]): 5.86
fold induction at 10 µM (HSP70 [1]): 1.79

CC/C(=C\CCC(=O)C12CC3CC(CC(C3)C1)C2)CC/C=C(\C)CC/C=C(\C)CCC=C(C)C [drawing 177]
fold induction at 0.1 µM (HSP70 [1]): 1.71
fold induction at 1 µM (HSP70 [1]): 2
fold induction at 10 µM (HSP70 [1]): 1

CC(=O)CC/C=C(\C)CC/C=C(\C)CC/C=C(\C)CCC=C(C)C [drawing 178]
fold induction at 0.1 µM (HSP70 [1]): 1.38
fold induction at 1 µM (HSP70 [1]): 2.05
fold induction at 10 µM (HSP70 [1]): 2.14

COC(=O)C(NC(=O)OC(C)CC/C=C(\C)CC/C=C(\C)CCC=C(C)C)C(C)C (stereo not shown) [drawing 179]
fold induction at 0.1 µM (HSP70 [1]): 1.26
fold induction at 1 µM (HSP70 [1]): 1.07
fold induction at 10 µM (HSP70 [1]): 1.29

CC(C)=CCC/C(C)=C/CC/C(C)=C/CC/C(C)=C/CC1CCCCC1=O (stereo not shown) [drawing 180]
Western signal of HSP70 in brain (HSP70 [2]; 12 hr after oral 12 mg/kg, time 0 hr = 100, Vehicle 102%): 116%
Western signal of HSP70 in brain (HSP70 [2]; 48 hr after oral 12 mg/kg, time 0 hr = 100, Vehicle 105%): 114%
Western signal of HSP70 in brain (HSP70 [2]; 96 hr after oral 12 mg/kg, time 0 hr = 100, Vehicle 99%): 97%
